Assay [1] addresses T1, TRAF6-Ubc13 binding (Homo sapiens, UniProt Q9Y4K3).
T1 construct: RING-Zincfinger1 (RZ1) domain (residues 50-159) of TRAF6 wildtype; expressed in transfected cells; host or cells: HEK 293T
T1 sequence (Q9Y4K3 50-159): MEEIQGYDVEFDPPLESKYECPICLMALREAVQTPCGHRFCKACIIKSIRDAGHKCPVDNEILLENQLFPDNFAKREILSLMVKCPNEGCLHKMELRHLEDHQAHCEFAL
Nature of the assay: Co-immunoprecipitation of HA-TRAF6 and endogenous Ubc13 in HEK 293T cells. The assay is classed as cell-based. The method, then: To study the interaction of TRAF6 and Ubc13 in cells, 1×10^6 293T cells were seeded and after 18 hours cells were transfected with lpg pEF-HA empty or pEF-HA-TRAF6 RZ1 plasmid using the X-tremeGENE HP DNA transfection reagent (Roche). 6 hours upon transfection, cells were treated with compound or DMSO. After 42 hours further incubation, cells were harvested in Co-IP lysis buffer and HA-TRAF6 was immunoprecipitated with anti-HA affinity matrix (Roche). Binding of Ubc13 to TRAF6 was examined in Western Blot analysis.

In assay [2] the target is T2, TRAF6-UBC13 interaction (Homo sapiens, UniProt Q9Y4K3).
T2 construct: RING-Zincfinger1 (RZ1) domain (residues 50-159) of TRAF6 wildtype; made in house; host or cells: E. coli BL21 codon plus RIPL
T2 sequence (Q9Y4K3 50-159): T1 sequence (Q9Y4K3 50-159)
As to the kind of experiment: ALPHAScreen TRAF6WTStrepII-Ubc13FH interaction assay. Format: binding. To be noted: for IC50 / inhibition at 100 µM: inhibition of TRAF6-UBC13 interaction; for inhibition at 100 µM: read-out: IC50 Alphascreen. An excerpt: In order to identify small molecules that specifically target the RZ1 domain of TRAF6 and thereby prevent its binding to Ubc13, the ALPHAScreen technology (PerkinElmer) was chosen to detect TRAF6WTStrepII-Ubc13FH interaction in High-Throughput-Screenings as well as Structure Activity Relationship (SAR) analysis.
For performance of an automated ALPHAScreen assay, all following components were pre-diluted in ALPHAScreen buffer (1×PBS, 0.5% BSA, 0.01% Tween-20). First, the TRAF6 protein (end concentration 100 nM, 30 μL volume) was added to 384-well-opti-plates involving the MultiFlo dispensing system (BioTek) followed by transfer of the compounds via the Sciclone G3 transfer station (PerkinElmer). After addition of Ubc13FH (end concentration 75 nM, 10 μL volume) with the MultiFlo system and incubation for one hour at room temperature, both beads (Strep-Tactin Alpha Donor beads and Nickel-Chelate acceptor beads; end concentrations 4 μg each, 10 μL volume each) were mixed and added using the MultiFlo system in subdued light. Read-out of the plates occurred after another hour of incubation at room temperature. Statistical parameters including the coefficient of variation, Z′ factor and signal window were calculated to determine the quality of the HTS campaign. To evaluate the efficacy of the compounds, ALPHAScreen units of compound-treated samples were referred to DMSO control treated samples. Thereby, the TRAF6D57K mutant served as the control for minimum signal and was included on every plate of the screening. Compounds that inhibited TRAF6WTStrepII-Ubc13FH by more than 25% were considered as actives. After elimination of ALPHAScreen frequent hitter compounds and His-tag frequent hitters (Schorpp, K., I. Rothenaigner, E. Salmina, et al., Identification of Small-Molecule Frequent Hitters from AlphaScreen High-Throughput Screens. J Biomol Screen, 2014. 19(5): p. 715-26), 178 compounds were defined as primary hits and were subsequently tested in five-point serial dilution assays (2.5-40 μM) in TRAF6WTStrepII-Ubc13FH ALPHAScreen experiments. Only compounds with dose-dependent effects on TRAF6WTStrepII-Ubc13FH (n=27) were taken for further research. For analog testing, all compounds were analyzed in ten-point titration (0.2-100 μM) in TRAF6WTStrepII-Ubc13FH ALPHAScreen experiments. In parallel, the compounds were tested in the ALPHAScreen TruHits Kit (PerkinElmer) to rule out unspecific interference with the ALPHAScreen technology.
(Bead proximity is the source of the signal in Alpha formats.)

Here are results for 13 compounds from patent publication US11001591B2, “TRAF 6 inhibitors” (HELMHOLTZ ZENTRUM MUENCHEN—DEUTSCHES FORSCHUNGSZENTRUM FÜR …, priority 2016, dated 2021).

Broadly, the IC50 is the point on the concentration scale where inhibition reaches its midpoint.

Each structure is given as a SMILES string. Entries after “also recorded” stand apart in the source; their conditions may differ. Read-outs that look alike come from different tables or passages of the source. Some results are limits rather than exact numbers.

Take `COc1cccc(CC2CCN(C(=O)CCc3c(C)nn(-c4ccc5nnc(C)n5n4)c3C)CC2)c1` [Compound 34, 3-(3,5-dimethyl-1-(3-methyl-[1,2,4]triazolo[4,3-b]pyridazin-6-yl)-1H-pyrazol-4-yl)-1-(4-(3-methoxybenzyl)piperidin-1-yl)propan-1-one]: the “interaction of endogenous Ubc13 with ectopically expressed HA-TRAF6” value (“interaction of endogenous Ubc13” for short) in assay [1] (listed as HZM06-8) is “active in cells; also recorded: most active analogs”.
On to `Cc1nn(-c2ccc3nnc(C)n3n2)c(C)c1CCC(=O)N1CCC(Cc2ccc(F)cc2)CC1` [Compound 35, 3-(3,5-dimethyl-1-(3-methyl-[1,2,4]triazolo[4,3-b]pyridazin-6-yl)-1H-pyrazol-4-yl)-1-(4-(4-fluorobenzyl)piperidin-1-yl)propan-1-one], for which, in assay [1] (listed as HZM06-9), the “interaction of endogenous Ubc13” value was “active in cells; also recorded: most active analogs”.
Consider `Cc1nn(-c2ccc3nnc(C)n3n2)c(C)c1CCC(=O)N1CCC(Cc2ccccn2)CC1` [Compound 36, 3-(3,5-dimethyl-1-(3-methyl-[1,2,4]triazolo[4,3-b]pyridazin-6-yl)-1H-pyrazol-4-yl)-1-(4-(pyridin-2-ylmethyl)piperidin-1-yl)propan-1-one], for which, in assay [1], the “interaction of endogenous Ubc13” value is listed as “active in cells”.
With `Cc1nn(-c2ccc3nnc(C)n3n2)c(C)c1CCC(=O)N1CCN(Cc2ccccc2)CC1` [Compound 28, 1-(4-benzylpiperazin-1-yl)-3-(3,5-dimethyl-1-(3-methyl-[1,2,4]triazolo[4,3-b]pyridazin-6-yl)-1H-pyrazol-4-yl)propan-1-one], in assay [1], the “interaction of endogenous Ubc13” value is “active in cells”.
In the case of `Cc1nn(-c2ccc3nnc(C)n3n2)c(C)c1CCC(=O)N1CCC(Cc2ccccc2)C1` (centres unmarked) [Compound 31, 1-(3-benzylpyrrolidin-1-yl)-3-(3,5-dimethyl-1-(3-methyl-[1,2,4]triazolo[4,3-b]pyridazin-6-yl)-1H-pyrazol-4-yl)propan-1-one], the “inhibitory activity in ALPHAScreen” value in assay [2] (serial dilution) was “most prominent effect”. Further, the “interaction of endogenous Ubc13” value in assay [1] (listed as HZM06-4) was “active in cells; also recorded: most active analogs”.
On to `COc1cccc(CN2CCN(C(=O)CCc3c(C)nn(-c4ccc5nnc(C)n5n4)c3C)CC2)c1` [Compound 29, 3-(3,5-dimethyl-1-(3-methyl-[1,2,4]triazolo[4,3-b]pyridazin-6-yl)-1H-pyrazol-4-yl)-1-(4-(3-methoxybenzyl)piperazin-1-yl)propan-1-one], for which, in assay [1], the “interaction of endogenous Ubc13” value is listed as “active in cells”.
Consider `Cc1nn(-c2ccc3nnc(C)n3n2)c(C)c1CCC(=O)N1CCC(c2ccccc2)CC1` [Compound 32, 3-(3,5-dimethyl-1-(3-methyl-[1,2,4]triazolo[4,3-b]pyridazin-6-yl)-1H-pyrazol-4-yl)-1-(4-phenylpiperidin-1-yl)propan-1-one], for which, in assay [1], the “interaction of endogenous Ubc13” value is given as “active in cells”.
Still for that read-out and setting: in the case of `Cc1nn(-c2ccc3nnc(C)n3n2)c(C)c1CCC(=O)N1CCN(Cc2ccc(F)cc2)CC1` [Compound 30, 3-(3,5-dimethyl-1-(3-methyl-[1,2,4]triazolo[4,3-b]pyridazin-6-yl)-1H-pyrazol-4-yl)-1-(4-(4-fluorobenzyl)piperazin-1-yl)propan-1-one] it was “active in cells”.
For the compound `Cc1nn(-c2ccc3nnc(C)n3n2)c(C)c1CCC(=O)NCc1cccs1` [Compound 19, 3-(3,5-dimethyl-1-(3-methyl-[1,2,4]triazolo[4,3-b]pyridazin-6-yl)-1H-pyrazol-4-yl)-N-(thiophen-2-ylmethyl)propanamide], in assay [2], the IC50 is not above 30 µM.
In assay [2], `Cc1ccc(C)c(N2CCN(C(=O)CCc3c(C)nn(-c4ccc5nnc(C)n5n4)c3C)CC2)c1` [Compound 17, 3-(3,5-dimethyl-1-(3-methyl-[1,2,4]triazolo[4,3-b]pyridazin-6-yl)-1H-pyrazol-4-yl)-1-(4-(2,5-dimethylphenyl)piperazin-1-yl)propan-1-one] came in with a half-maximal inhibitory concentration (IC50) not above 30 µM.
In the case of `Cc1nn(-c2ccc3nnc(C)n3n2)c(C)c1CCC(=O)N1CCC(c2ccccn2)CC1` [Compound 33, 3-(3,5-dimethyl-1-(3-methyl-[1,2,4]triazolo[4,3-b]pyridazin-6-yl)-1H-pyrazol-4-yl)-1-(4-(pyridin-2-yl)piperidin-1-yl)propan-1-one], in assay [1] (listed as HZM06-7), the “interaction of endogenous Ubc13” value is “active in cells; also recorded: most active analogs”.
With `CCN1CCN(C(=O)CCc2c(C)nn(-c3ccc4nnc(C)n4n3)c2C)CC1` [Compound 23, 3-(3,5-dimethyl-1-(3-methyl-[1,2,4]triazolo[4,3-b]pyridazin-6-yl)-1H-pyrazol-4-yl)-1-(4-ethylpiperazin-1-yl)propan-1-one], the inhibition at 100 µM in assay [2] was not below 30%.
As to `Cc1nn(-c2ccc3nnc(C)n3n2)c(C)c1CCC(=O)NCCSCc1ccco1` [Compound 27, 3-(3,5-dimethyl-1-(3-methyl-[1,2,4]triazolo[4,3-b]pyridazin-6-yl)-1H-pyrazol-4-yl)-N-(2-((furan-2-ylmethyl)thio)ethyl)propanamide], the inhibition at 100 µM in assay [2] is not below 30%.
